Experimental findings from patent publication US11708367B2, “Compounds for the treatment of kinase-dependent disorders” (Exelixis, Inc., priority 2018, dated 2023) are described below.

Molecules are shown by their SMILES. Bounds are passed on as bounds.

Test [1] addresses Human Axl (Homo sapiens (Human), UniProt P30530, Q764R). Briefly: Human AXL kinase assay (33P radiometric, KinaseProfiler). As to conditions: 10 μM ATP. The format is biochemical. The protocol:
(§1) Kinase activity and compound inhibition were investigated using the ^33P-Phosphoryl transfer radiometric kinase assay, performed using the KinaseProfiler™ service of Eurofins Pharma Discovery Services UK Limited. Dose-response experiments were performed using nine compound concentrations in a 96-well microtiter plate. For each assay, all compounds were prepared to a 50× final assay concentration (50 μM) in 100% DMSO, then diluted in a half-log series, with the final top concentration at 1 μM. This working stock of the compound was added to the assay well as the first component in the reaction, followed by the remaining components as detailed in the following assay protocols below. The positive control wells (100% kinase activity) contain all components of the reaction including 2% DMSO (control for solvent effects), except the compound of interest. Blank wells contain all components of the reaction, with the reference inhibitor, staurosporine. This reference compound was used to abolish kinase activity and generated the 0% kinase activity base-line. IC50 values were calculated by nonlinear regression analysis using the sigmoidal dose-response (variable slope) curve fit on XLFit version 5.3 (ID Business Solutions).
Human Axl (residues H473-A894 with Q764R, 161 nM) was incubated with 8 mM MOPS pH 7.0, 0.2 mM EDTA, 250 μM KKSRGDYMTMQIG (SEQ ID NO. 43), 10 mM magnesium acetate and 10 μM [γ-33P-ATP]. The reaction was initiated by the addition of the Mg/ATP mix. After incubation for 40 minutes at room temperature, the reaction was stopped by the addition of phosphoric acid to a concentration of 0.5%. A reaction aliquot of 10 μL was then spotted onto a P30 filtermat and washed four times for 4 minutes in 0.425% phosphoric acid and once in methanol prior to drying and scintillation counting. Incorporated ^33P was measured using the Wallac Microbeta scintillation counter (Perkin Elmer).

For test [2], the target named is AXL (Homo sapiens (Human), UniProt P30530). Description: AXL autophosphorylation ELISA in A-172 cells. The format is cell-based. As to conditions: cellular, Gas6-stimulated, phospho-AXL ELISA. In outline:
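A-172 glioblastoma cells, serum-starved 24 h, got 8-point compound dilutions (0.3% DMSO) for 1 h, then 1 μg/mL human Gas6 for 15 min. Phospho-AXL in lysates was quantified by ELISA against a standard, normalized between DMSO and reference-inhibitor controls; IC50 by 4-parameter logistic fit.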
Background: ELISA stands for enzyme-linked immunosorbent assay.

Test [3] has as its target Mer (Homo sapiens (Human), UniProt Q12866). Briefly: Human Mer kinase assay (33P radiometric, KinaseProfiler). As to conditions: 10 μM ATP. The format is biochemical. As to the method: as §1
Human Mer (residues R557-E882 with H628Q and R794A, 0.7 nM) was incubated with 8 mM MOPS pH 7.0, 0.2 mM EDTA, 30 mM NaCl, 250 μM GGMEDIYFEFMGGKKK (SEQ ID NO. 44), 10 mM magnesium acetate, and 10 μM [γ-33P-ATP]. The reaction was initiated by the addition of the Mg/ATP mix. After incubation for 40 minutes at room temperature, the reaction was stopped by the addition of phosphoric acid to a concentration of 0.5%. A reaction aliquot of 10 μL was then spotted onto a P30 filtermat and washed four times for 4 minutes in 0.425% phosphoric acid and once in methanol prior to drying and scintillation counting. Incorporated 33P was measured using the Wallac Microbeta scintillation counter (Perkin Elmer).

The target in test [4] is KDR (Homo sapiens (Human), UniProt P35968). Description: KDR autophosphorylation ELISA in HUVEC cells. Type of test: cell-based. The note with it: cellular, VEGF165-stimulated, phospho-KDR ELISA. In outline: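 Serum-starved (24 h) HUVECs were pre-treated with compound (8-point dose curve, 0.3% DMSO final) for 1 h, then stimulated with 100 ng/mL human VEGF165 for 5 min. Lysate phospho-KDR was quantified by ELISA against a phospho-KDR standard. IC50 came from a 4-parameter logistic fit, normalized to stimulated-DMSO (100%) and unstimulated (0%) controls.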
Chain of KDR (P35968 20-1356): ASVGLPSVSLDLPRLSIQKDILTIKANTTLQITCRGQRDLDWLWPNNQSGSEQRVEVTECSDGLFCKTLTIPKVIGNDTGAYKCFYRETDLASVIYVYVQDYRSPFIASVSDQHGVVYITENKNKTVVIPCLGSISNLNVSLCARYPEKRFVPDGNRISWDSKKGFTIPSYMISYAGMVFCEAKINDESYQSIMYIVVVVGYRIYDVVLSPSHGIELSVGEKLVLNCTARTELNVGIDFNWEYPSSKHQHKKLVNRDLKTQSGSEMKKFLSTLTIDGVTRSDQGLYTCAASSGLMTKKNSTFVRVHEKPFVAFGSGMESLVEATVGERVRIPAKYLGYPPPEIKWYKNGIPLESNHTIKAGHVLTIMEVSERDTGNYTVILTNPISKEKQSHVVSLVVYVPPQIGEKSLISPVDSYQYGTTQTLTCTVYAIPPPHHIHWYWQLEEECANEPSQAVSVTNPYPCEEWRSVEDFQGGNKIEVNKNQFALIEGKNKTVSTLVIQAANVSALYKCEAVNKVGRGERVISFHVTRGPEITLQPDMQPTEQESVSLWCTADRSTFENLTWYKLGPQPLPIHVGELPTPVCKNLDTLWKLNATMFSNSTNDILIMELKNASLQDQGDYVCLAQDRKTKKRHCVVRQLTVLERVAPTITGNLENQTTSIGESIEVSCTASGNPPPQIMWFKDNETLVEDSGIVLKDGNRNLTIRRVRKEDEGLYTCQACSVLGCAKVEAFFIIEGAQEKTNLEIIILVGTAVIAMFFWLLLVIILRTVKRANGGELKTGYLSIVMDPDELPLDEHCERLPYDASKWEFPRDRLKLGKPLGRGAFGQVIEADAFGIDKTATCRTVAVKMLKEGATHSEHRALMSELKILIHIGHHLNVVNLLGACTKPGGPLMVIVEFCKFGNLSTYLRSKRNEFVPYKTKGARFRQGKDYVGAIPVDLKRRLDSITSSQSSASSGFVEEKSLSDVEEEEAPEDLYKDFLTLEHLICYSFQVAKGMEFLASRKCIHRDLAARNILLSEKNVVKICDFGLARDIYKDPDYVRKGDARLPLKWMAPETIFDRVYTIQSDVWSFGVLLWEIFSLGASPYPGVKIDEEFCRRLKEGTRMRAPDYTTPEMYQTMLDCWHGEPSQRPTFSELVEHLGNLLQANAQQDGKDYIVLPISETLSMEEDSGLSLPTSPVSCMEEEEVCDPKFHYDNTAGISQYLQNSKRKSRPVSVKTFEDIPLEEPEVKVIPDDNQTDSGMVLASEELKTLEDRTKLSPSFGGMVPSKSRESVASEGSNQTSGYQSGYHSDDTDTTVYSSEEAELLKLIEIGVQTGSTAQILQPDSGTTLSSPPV

Chain of Human Axl (P30530 473-894 Q764R): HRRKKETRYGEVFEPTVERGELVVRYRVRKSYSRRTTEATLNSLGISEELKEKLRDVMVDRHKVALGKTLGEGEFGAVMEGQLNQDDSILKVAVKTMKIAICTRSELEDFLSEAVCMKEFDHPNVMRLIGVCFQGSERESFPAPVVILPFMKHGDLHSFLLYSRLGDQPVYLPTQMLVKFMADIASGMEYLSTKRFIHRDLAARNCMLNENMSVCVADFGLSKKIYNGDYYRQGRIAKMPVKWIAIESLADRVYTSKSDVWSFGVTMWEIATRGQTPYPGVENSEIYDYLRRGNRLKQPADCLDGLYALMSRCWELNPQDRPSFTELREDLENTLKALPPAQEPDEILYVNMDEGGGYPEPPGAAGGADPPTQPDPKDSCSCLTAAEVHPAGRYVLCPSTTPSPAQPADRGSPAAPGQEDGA
Chain of Mer (Q12866 557-882): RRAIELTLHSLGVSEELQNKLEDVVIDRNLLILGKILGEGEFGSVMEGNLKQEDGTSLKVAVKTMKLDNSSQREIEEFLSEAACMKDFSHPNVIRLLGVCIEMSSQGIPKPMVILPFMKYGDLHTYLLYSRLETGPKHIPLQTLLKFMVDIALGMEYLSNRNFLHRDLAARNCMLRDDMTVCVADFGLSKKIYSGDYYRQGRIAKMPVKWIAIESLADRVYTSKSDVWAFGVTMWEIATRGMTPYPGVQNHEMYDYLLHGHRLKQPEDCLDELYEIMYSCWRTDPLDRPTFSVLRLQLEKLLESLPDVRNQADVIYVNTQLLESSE
Chain of AXL (P30530 26-894): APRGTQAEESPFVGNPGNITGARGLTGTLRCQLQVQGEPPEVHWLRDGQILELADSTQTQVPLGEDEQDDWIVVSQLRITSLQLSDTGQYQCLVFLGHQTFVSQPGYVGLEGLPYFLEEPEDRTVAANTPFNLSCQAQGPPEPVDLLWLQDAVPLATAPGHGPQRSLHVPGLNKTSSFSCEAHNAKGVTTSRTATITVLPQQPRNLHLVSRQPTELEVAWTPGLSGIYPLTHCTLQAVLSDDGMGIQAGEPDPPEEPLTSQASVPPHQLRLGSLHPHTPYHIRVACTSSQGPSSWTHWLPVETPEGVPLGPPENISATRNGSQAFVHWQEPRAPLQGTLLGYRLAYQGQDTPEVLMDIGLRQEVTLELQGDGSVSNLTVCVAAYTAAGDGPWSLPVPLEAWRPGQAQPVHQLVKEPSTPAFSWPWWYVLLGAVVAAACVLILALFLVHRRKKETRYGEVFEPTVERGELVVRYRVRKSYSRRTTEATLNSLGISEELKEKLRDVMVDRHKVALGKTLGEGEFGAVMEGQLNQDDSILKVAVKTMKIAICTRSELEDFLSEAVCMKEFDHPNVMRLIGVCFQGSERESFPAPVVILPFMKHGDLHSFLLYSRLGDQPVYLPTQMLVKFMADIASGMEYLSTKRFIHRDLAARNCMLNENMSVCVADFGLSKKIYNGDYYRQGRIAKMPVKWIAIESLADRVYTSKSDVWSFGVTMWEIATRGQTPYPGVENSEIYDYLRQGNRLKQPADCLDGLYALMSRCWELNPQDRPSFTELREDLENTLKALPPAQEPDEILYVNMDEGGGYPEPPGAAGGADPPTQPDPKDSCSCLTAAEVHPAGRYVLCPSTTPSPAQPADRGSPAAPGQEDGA

In general, IC50 refers to the concentration that gives 50% inhibition. A low value points to greater potency in that assay. As to `COc1cc2ncnc(Oc3ccc(NC(=O)C4(C(=O)Nc5ccc(F)cc5)CC4)cc3)c2nc1OC` [Compound 28, 1-N-[4-(6,7-dimethoxy-pyrido[3,2-d]pyrimidin-4-yl)oxyphenyl]-1-N′-(4-fluorophenyl)cyclo-propane-1,1-dicarboxamide], the IC50 is no more than 10 nM in test [1], 10 to 100 nM in test [2], no more than 10 nM in test [3] and 10 to 100 nM in test [4].
As for `COc1cc2ncnc(Oc3ccc(NC(=O)C4(C(=O)Nc5ccc(F)cc5)CC4)cc3Cl)c2nc1OC` [Compound 29, 1-N′-[3-chloro-4-(6,7-dimethoxypyrido[3,2-d]pyrimidin-4-yl)oxyphenyl]-1-N-(4-fluorophenyl)cyclo-propane-1,1-dicarboxamide], the 50% inhibitory concentration (IC50) was 10 to 100 nM in test [1], 10 to 100 nM in test [2], no more than 10 nM in test [3] and no more than 10 nM in test [4].
On to `COc1cc2ncnc(Oc3ccc(NC(=O)C4(C(=O)Nc5ccc(F)cc5)CC4)cc3F)c2nc1OC` [Compound 30, 1-N′-[4-(6,7-dimethoxypyrido[3,2-d]pyrimidin-4-yl)oxy-3-fluorophenyl]-1-N-(4-fluorophenyl)cyclopropane-1,1-dicarboxamide], for which the IC50 in test [1], in test [2], in test [3] and in test [4] was no more than 10 nM each time.
Turning to `COc1nc2c(Oc3ccc(NC(=O)C4(C(=O)Nc5ccc(F)cc5)CC4)cc3)ncnc2cc1OCCCN1CCOCC1` [Compound 65, 1-N′-(4-fluorophenyl)-1-N-[4-[6-methoxy-7-(3-morpholin-4-ylpropoxy)pyrido[3,2-d]pyrimidin-4-yl]oxyphenyl]cyclopropane-1,1-dicarboxamide], the IC50 in test [1] was 10 to 100 nM; in test [2], no more than 10 nM; in test [3] it was no more than 10 nM; in test [4] it was no more than 10 nM.
Take `COc1nc2c(Oc3ccc(NC(=O)C4(C(=O)Nc5ccc(F)cc5)CC4)cc3Cl)ncnc2cc1OCCCN1CCOCC1` [Compound 66, 1-N′-[3-chloro-4-[6-methoxy-7-(3-morpholin-4-ylpropoxy)pyrido[3,2-d]pyrimidin-4-yl]oxyphenyl]-1-N-(4-fluorophenyl)cyclo-propane-1,1-dicarboxamide]: the IC50 in test [1], in test [2], in test [3] and in test [4] was no more than 10 nM throughout.
As for `COc1nc2c(Oc3ccc(NC(=O)C4(C(=O)Nc5ccc(F)cc5)CC4)cc3F)ncnc2cc1OCCCN1CCOCC1` [Compound 67, 1-N′-[3-fluoro-4-[6-methoxy-7-(3-morpholin-4-ylpropoxy)pyrido[3,2-d]pyrimidin-4-yl]oxyphenyl]-1-N-(4-fluorophenyl)cyclo-propane-1,1-dicarboxamide], the IC50 in test [1], in test [2], in test [3] and in test [4] was no more than 10 nM each time.
Consider `COc1cc2c(Oc3ccc(NC(=O)C4(C(=O)Nc5ccc(F)cc5)CC4)cc3)ncnc2cn1` [Compound 91, 1-N′-(4-fluorophenyl)-1-N-[4-(6-methoxypyrido[3,4-d]pyrimidin-4-yl)oxyphenyl]cyclopropane-1,1-dicarboxamide], for which the IC50 was 100 to 1000 nM in test [1], greater than 300 nM in test [2], 10 to 100 nM in test [3] and greater than 300 nM in test [4].
On to `COc1cc2ncnc(Oc3ccc(NC(=O)C4(C(=O)Nc5ccc(F)cc5)CC4)cc3)c2cn1` [Compound 104, 1-N′-(4-fluorophenyl)-1-N-[4-(7-methoxypyrido[4,3-d]pyrimidin-4-yl)oxy-phenyl]cyclopropane-1,1-dicarboxamide], for which the concentration for half-maximal inhibition (IC50) was 10 to 100 nM in test [1], greater than 300 nM in test [2], 10 to 100 nM in test [3] and greater than 300 nM in test [4].
On to `COc1cc2ncnc(Oc3ccc(NC(=O)C4(C(=O)Nc5ccc(F)cc5)CC4)cc3)c2cc1C(=O)NC1COC1` [Compound 115, 1-N′-(4-fluorophenyl)-1-N-[4-[7-methoxy-6-(oxetan-3-ylcarbamoyl)quinazolin-4-yl]oxyphenyl]cyclopropane-1,1-dicarboxamide], for which the IC50 in test [1] was 10 to 100 nM; in test [2], greater than 300 nM; in test [3], 10 to 100 nM; in test [4], 10 to 100 nM.
For the compound `COc1cc2ncnc(Oc3ccc(NC(=O)C4(C(=O)Nc5ccc(F)cc5)CC4)cc3)c2cc1C(=O)NC1CC1` [Compound 116, 1-N-[4-[6-(cyclopropylcarbamoyl)-7-methoxyquinazolin-4-yl]oxyphenyl]-1-N′-(4-fluorophenyl)cyclopropane-1,1-dicarboxamide], the IC50 lay within 10 to 100 nM in test [1], 100 to 300 nM in test [2], 10 to 100 nM in test [3] and 10 to 100 nM in test [4].
As to `COc1cc2ncnc(Oc3ccc(NC(=O)C4(C(=O)Nc5ccc(F)cc5)CC4)cc3)c2cc1C(N)=O` [Compound 117, 1-N-[4-(6-carbamoyl-7-methoxyquinazolin-4-yl)oxyphenyl]-1-N′-(4-fluorophenyl)cyclopropane-1,1-dicarboxamide], the half-inhibitory concentration (IC50) in test [1] is 10 to 100 nM; in test [2], no more than 10 nM; in test [3], no more than 10 nM; in test [4], 10 to 100 nM.
`COc1cc2ncnc(Oc3ccc(NC(=O)C4(C(=O)Nc5ccc(F)cc5)CC4)cc3)c2cc1C(=O)NCCN1CCCC1` [Compound 118, 1-N′-(4-fluorophenyl)-1-N-[4-[7-methoxy-6-(2-pyrrolidin-1-ylethyl-carbamoyl)quinazolin-4-yl]oxyphenyl]cyclopropane-1,1-dicarboxamide]: the IC50 is 10 to 100 nM in test [1], 10 to 100 nM in test [2], no more than 10 nM in test [3] and 100 to 300 nM in test [4].
On to `COc1cc2ncnc(Oc3ccc(NC(=O)C4(C(=O)Nc5ccc(F)cc5)CC4)cc3)c2cc1C(=O)NC[C@H]1CCCN1C(=O)OC(C)(C)C` [Compound 119, tert-butyl (2R)-2-[[[4-[4-[[1-[(4-fluoro-phenyl)carbamoyl]cyclo-propane-carbonyl]amino]phenoxy]-7-methoxyquinazoline-6-carbonyl]amino]methyl]pyr-rolidine-1-carboxylate], for which the concentration for half-maximal inhibition (IC50) in test [1] is 10 to 100 nM; in test [2], 100 to 300 nM; in test [3], 10 to 100 nM; in test [4], 10 to 100 nM.
As to `COc1cc2ncnc(Oc3ccc(NC(=O)C4(C(=O)Nc5ccc(F)cc5)CC4)cc3)c2cc1C(=O)NC[C@@H]1CCCN1C(=O)OC(C)(C)C` [Compound 120, tert-butyl (2S)-2-[[[4-[4-[[1-[(4-fluoro-phenyl)carbamoyl]cyclo-propane-carbonyl]amino]phenoxy]-7-methoxyquinazoline-6-carbonyl]amino]methyl]pyr-rolidine-1-carboxylate], the IC50 in test [1] was 10 to 100 nM; in test [2], greater than 300 nM; in test [3] it was 10 to 100 nM; in test [4] it was 100 to 300 nM.
Turning to `COc1cc2ncnc(Oc3ccc(NC(=O)C4(C(=O)Nc5ccc(F)cc5)CC4)cc3)c2cc1C(=O)NC[C@H]1CCCN1` [Compound 121, 1-N′-(4-fluorophenyl)-1-N-[4-[7-methoxy-6-[[(2R)-pyrrolidin-2-yl]methyl-carbamoyl]quinazolin-4-yl]oxyphenyl]cyclopropane-1,1-dicarboxamide], the IC50 was no more than 10 nM in test [1], 10 to 100 nM in test [2], no more than 10 nM in test [3] and 100 to 300 nM in test [4].
